Laboratory results reported in patent publication US20230091336A1, “CANNABINOID COMPOSITIONS” (priority 2020, published 2023).

Experiments:
[1] = test system: thapsigargin (Tg)-induced Ca^2+ entry (SOCE) in Jurkat, U937, Luva, RBL-2H3, HL-60 and HEK-293 cells; test: Thapsigargin-induced SOCE Fura-2 bioassay in various cell types (FIG. 1); type: cell-based; details: 1 μM, positive control, all tested cell types
Protocol: A Fura-2 calcium flux assay was used to determine cytoplasmic Ca^2+ levels. Briefly, cells were preloaded with Fura-2 AM, and fluorescence intensity in cells intensity was measured over time as a ratio of detected 510 nm fluorescent light emission intensity when excited by UV light at 340 nm and 380 nm wavelengths (f340/f380 ratio). Gadolinium (Gd^3+) is known to block SOCE at a concentration of 1 μM and was used at 1 μM as a positive control in these experiments (gray line).

UUO mice = details: background statement; cited from earlier work
kidney cell-line model = details: background statement; cited from earlier work

[Cl][Gd]([Cl])[Cl] [Gd^3+, Gadolinium Chloride]
effect on Tg-induced SOCE (f340/f380 ratio) [1]: inhibited SOCE

c1ccc2c(c1)CCC[C@H]2Nc1nc2ccccc2[nH]1 [NS8593]
progression of kidney damage and fibrosis in the UUO mouse model (UUO mice): ameliorates the progression of kidney damage and fibrosis
cell proliferation in a kidney cell-line model (kidney cell-line model): inhibit cell proliferation
